Measurements from patent publication US7223749B2, “Bicyclic heterocycles, pharmaceutical compositions containing these compounds, their use and processes for preparing them” (Boehringer Ingelheim International GmbH, priority 2003, dated 2007).

Target: T1, human EGF-receptor kinase (Homo sapiens, UniProt P00533)
T1 construct: GST; made in house; host or cells: Sf9 insect cells (Baculovirus)
Assay: Inhibition of human EGF-receptor kinase (cytoplasmatic tyrosine kinase domain, GST fusion protein, pEY substrate, ELISA readout)
Type: biochemical
Settings: cytoplasmatic tyrosine kinase domain (Met 664 to Ala 1186) as GST fusion protein; poly(EY)/bio-pEY substrate; 30 minutes at ambient temperature
Procedure: The inhibition of human EGF-receptor kinase was determined using the cytoplasmatic tyrosine kinase domain (methionine 664 to alanine 1186, based on the sequence published in Nature 309 (1984), 418). To do this, the protein was expressed in Sf9 insect cells as a GST fusion protein using the Baculovirus expression system.
The enzyme activity was measured in the presence or absence of the test compounds in serial dilutions. The polymer pEY (4:1) produced by SIGMA was used as the substrate. Biotinylated pEY (bio-pEY) was added as the tracer substrate. Every 100 μl of reaction solution contained 10 μl of the inhibitor in 50% DMSO, 20 μl of the substrate solution (200 mM HEPES pH 7.4, 50 mM magnesium acetate, 2.5 mg/ml of poly(EY), 5 μg/ml of bio-pEY) and 20 μl of enzyme preparation. The enzyme reaction was started by the addition of 50 μl of a 100 μM ATP solution in 10 mM magnesium chloride. The dilution of the enzyme preparation was adjusted so that the incorporation of phosphate into the bio-pEY was linear in terms of time and quantity of enzyme. […]
The enzyme assays were carried out at ambient temperature over a period of 30 minutes and were ended by the addition of 50 μl of a stopping solution (250 mM EDTA in 20 mM HEPES pH 7.4). […] The extinction was measured at OD450 nm with an ELISA reader. All data points were measured three times. […]

T1 sequence (P00533 688-1210): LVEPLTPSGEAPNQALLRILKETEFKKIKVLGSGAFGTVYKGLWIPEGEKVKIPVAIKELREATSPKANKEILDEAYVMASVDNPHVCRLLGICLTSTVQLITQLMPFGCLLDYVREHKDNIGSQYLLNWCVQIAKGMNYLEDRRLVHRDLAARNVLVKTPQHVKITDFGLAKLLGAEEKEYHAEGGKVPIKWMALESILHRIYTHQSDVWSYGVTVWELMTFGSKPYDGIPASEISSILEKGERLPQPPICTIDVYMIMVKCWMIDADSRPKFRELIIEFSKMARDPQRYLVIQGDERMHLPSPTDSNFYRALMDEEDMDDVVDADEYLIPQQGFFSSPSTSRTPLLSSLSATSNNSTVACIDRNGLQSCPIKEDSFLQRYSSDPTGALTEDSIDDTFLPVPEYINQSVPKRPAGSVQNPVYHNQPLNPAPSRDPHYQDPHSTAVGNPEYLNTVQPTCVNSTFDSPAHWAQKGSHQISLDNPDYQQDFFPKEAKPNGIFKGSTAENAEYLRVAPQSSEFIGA

Work on `O=C(/C=C/CN1CCCOCC1)Nc1cc2c(Nc3ccc(F)c(Cl)c3)ncnc2cc1O[C@H]1CCOC1` [Example 1, 4-[(3-chloro-4-fluoro-phenyl)amino]-6-{[4-(homomorpholin-4-yl)-1-oxo-2-buten-1-yl]amino}-7-[(S)-(tetrahydrofuran-3-yl)oxy]-quinazoline] yielded an IC50 of 1.5 nM.
